As a reminder, the DC50 is the concentration giving 50% degradation.

The assay addresses T1, CDK2 (Homo sapiens, UniProt P24941).
T1 construct: endogenous in cells; host or cells: MKN1 cells
Put plainly: CDK2 degradation in MKN1 cells (AlphaLISA). Format: cell-based. Particulars: 14 h incubation; for DC50: read-out: CDK2 degradation 14 h: Mean external-Abs DC50. In short, it runs like this:
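MKN1 cells (2e4/well) treated 14 h at 37° C with 11-point 1:5 dilutions (0.001 nM-10 μM, 0.1% DMSO). CDK2 in lysates quantified by AlphaLISA, no-cell background subtracted; DC50 from four-parameter logistic fit.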
A general note: In Alpha technology, singlet oxygen from a donor bead excites a nearby acceptor bead.

For the molecule `Cc1cc(S(=O)(=O)NCCOCCOCCOCCOCCNc2cccc3c2C(=O)N(C2CCC(=O)NC2=O)C3=O)ccc1Nc1ncc2cc(C(F)F)c(=O)n(C3CCCC3(C)O)c2n1` (centres unmarked) [I-483], the “CDK2 degradation 14 h: Average Dmax %” value is on record as “A (A (>75% o))” and the 50% degradation concentration (DC50) is under 100 nM.
The like results for `Cc1cc(S(=O)(=O)NCCOCCOCCCc2ccc3c(c2)n(C)c(=O)n3C2CCC(=O)NC2=O)ccc1Nc1ncc2cc(C(F)F)c(=O)n(C3CCCC3(C)O)c2n1` (centres unmarked) [I-484] were, in that order, “A (A (>75% o))” and under 100 nM.
The like results for `Cc1cc(S(=O)(=O)NCCOCCOCCOCCOCCCc2ccc3c(c2)n(C)c(=O)n3C2CCC(=O)NC2=O)ccc1Nc1ncc2cc(C(F)F)c(=O)n(C3CCCC3(C)O)c2n1` (centres unmarked) [I-486] were, in that order, “A (A (>75% o))” and under 100 nM.
For `Cc1cc(S(=O)(=O)NCCOCCOCCCc2cccc3c2n(C)c(=O)n3C2CCC(=O)NC2=O)ccc1Nc1ncc2cc(C(F)F)c(=O)n([C@@H]3CCC[C@]3(C)O)c2n1` (some centres unmarked) [I-487], in that order: “A (A (>75% o))” and under 100 nM.
In the case of `Cc1cc(NCCOCCOCCOCCOCCCc2cccc3c2n(C)c(=O)n3C2CCC(=O)NC2=O)ccc1Nc1ncc2cc(C(F)F)c(=O)n([C@@H]3CCC[C@]3(C)O)c2n1` (some centres unmarked) [I-490], the “CDK2 degradation 14 h: Average Dmax %” value is recorded as “A (A (>75% o))” and the DC50 is under 100 nM.
For `C[C@]1(O)CCC[C@H]1n1c(=O)c(C(F)F)cc2cnc(NC3CCN(C(=O)COCCOCCNc4cccc5c4C(=O)N(C4CCC(=O)NC4=O)C5=O)CC3)nc21` (some centres unmarked) [I-491], in that order: “D (D (<25%))” and over 1000 nM.
The like results for `C[C@]1(O)CCC[C@H]1n1c(=O)c(C(F)F)cc2cnc(NC3CCN(C(=O)COCCOCCOCCOCCNc4cccc5c4C(=O)N(C4CCC(=O)NC4=O)C5=O)CC3)nc21` (some centres unmarked) [I-494] were, in that order, “D (D (<25%))” and over 1000 nM.
In the case of `Cn1c(=O)n(C2CCC(=O)NC2=O)c2cccc(CCCOCCOCC(=O)N3CCC(Nc4ncc5cc(C(F)F)c(=O)n([C@@H]6CCC[C@]6(C)O)c5n4)CC3)c21` (some centres unmarked) [I-499], the “CDK2 degradation 14 h: Average Dmax %” value is on record as “D (D (<25%))” and the DC50 was over 1000 nM.
In the case of `Cn1c(=O)n(C2CCC(=O)NC2=O)c2cccc(CCCOCCOCCOCCOCC(=O)N3CCC(Nc4ncc5cc(C(F)F)c(=O)n([C@@H]6CCC[C@]6(C)O)c5n4)CC3)c21` (some centres unmarked) [I-502], the “CDK2 degradation 14 h: Average Dmax %” value is “D (D (<25%))” and the DC50 is over 1000 nM.
The like results for `Cc1cc(S(=O)(=O)C2CC3(CCN(CC4CCN(c5ccc6c(c5F)n(C)c(=O)n6C5CCC(=O)NC5=O)CC4)CC3)C2)ccc1Nc1ncc(C(F)(F)F)c(N2CCC(C(C)(C)O)C2)n1` (centres unmarked) [I-505] were, in that order, “A (A (>75% o))” and under 100 nM.
The like results for `Cc1cc(S(=O)(=O)C2CC3(CCN(CC4CCN(c5ccc6c(c5F)n(C)c(=O)n6C5CCC(=O)NC5=O)CC4)CC3)C2)ccc1Nc1ncc(C(F)(F)F)c(N2CCCC(O)(C(F)F)C2)n1` (centres unmarked) [I-507] were, in that order, “B (B (>50% -75%))” and under 100 nM.
Turning to `CCc1cnc(Nc2ccc(S(=O)(=O)C3CC4(CCN(CC5CCN(c6cccc7c6n(C)c(=O)n7C6CCC(=O)NC6=O)CC5)CC4)C3)cc2C)nc1C1CCC(C)(O)CC1` (centres unmarked) [I-514], the “CDK2 degradation 14 h: Average Dmax %” value was “D (D (<25%))” and the DC50 was over 1000 nM.
Take `Cc1cc(S(=O)(=O)NCCOC2CCC(CN3CCC(c4ccc5c(c4F)n(C)c(=O)n5C4CCC(=O)NC4=O)CC3)CC2)ccc1Nc1ncc(C(F)(F)F)c(C2CCC(C)(O)CC2)n1` (centres unmarked) [I-515]: the “CDK2 degradation 14 h: Average Dmax %” value is given as “A (A (>75% o))” and the 50% degradation concentration (DC50) is under 100 nM.
Take `Cc1cc(S(=O)(=O)C2CC3(CCN(CC4CCN(c5ccc6c(c5F)n(C)c(=O)n6C5CCC(=O)NC5=O)CC4)CC3)C2)ccc1Nc1ncc(C(F)(F)F)c(C2CCC(O)(C(C)C)CC2)n1` (centres unmarked) [I-516]: the “CDK2 degradation 14 h: Average Dmax %” value is on record as “B (B (>50% -75%))” and the 50% degradation concentration (DC50) is over 1000 nM.
For `Cc1cc(S(=O)(=O)C2CC3(CCN(CC4CCN(c5ccc6c(c5F)n(C)c(=O)n6C5CCC(=O)NC5=O)CC4)CC3)C2)ccc1Nc1ncc(C(F)(F)F)c(N2CCCC(C)(O)C2)n1` (centres unmarked) [I-518], in that order: “A (A (>75% o))” and under 100 nM.
The like results for `Cc1cc(S(=O)(=O)NCCOC2CCC(CN3CCC(c4ccc5c(c4)n(C)c(=O)n5C4CCC(=O)NC4=O)CC3)CC2)ccc1Nc1ncc(C(F)(F)F)c(C2CCC(C)(O)CC2)n1` (centres unmarked) [I-519] were, in that order, “B (B (>50% -75%))” and under 100 nM.
For `Cc1cc(S(=O)(=O)C2CC3(CCN(CC4CCN(c5ccc6c(c5F)n(C)c(=O)n6C5CCC(=O)NC5=O)CC4)CC3)C2)ccc1Nc1ncc2c(n1)N(C1CCCC1)C(=O)C2(C)C` (centres unmarked) [I-524], in that order: “A (A (>75% o))” and under 100 nM.
With `Cc1cc(S(=O)(=O)C2CC3(CCN(CC4CCN(c5ccc6c(c5F)n(C)c(=O)n6C5CCC(=O)NC5=O)CC4)CC3)C2)ccc1Nc1ncc2c(n1)N(C1CCCC1)C(=O)C21CC1` (centres unmarked) [I-529], the “CDK2 degradation 14 h: Average Dmax %” value is “A (A (>75% o))” and the DC50 was under 100 nM.
As to `Cc1cc(S(=O)(=O)N2CCC(CN(C)C3CCN(c4cccc5c4n(C)c(=O)n5C4CCC(=O)NC4=O)CC3)CC2)ccc1Nc1ncc2c(n1)N(C1CCCC1)C(=O)C21CC1` (centres unmarked) [I-536], the “CDK2 degradation 14 h: Average Dmax %” value is listed as “A (A (>75% o))” and the 50% degradation concentration (DC50) is under 100 nM.
The like results for `Cc1cc(S(=O)(=O)NCCOC2CCC(CN3CCC(c4ccc5c(c4)n(C)c(=O)n5C4CCC(=O)NC4=O)CC3)CC2)ccc1Nc1ncc2c(n1)N(C1CCCC1)C(=O)C21CC1` (centres unmarked) [I-537] were, in that order, “A (A (>75% o))” and under 100 nM.
In the case of `Cc1cc(S(=O)(=O)C2CC3(CCN(CC4CCN(c5ccc6c(c5F)n(C)c(=O)n6C5CCC(=O)NC5=O)CC4)CC3)C2)ccc1Nc1ncc2c(n1)N(C1CCCC(O)C1)C(=O)C21CC1` (centres unmarked) [I-609], the “CDK2 degradation 14 h: Average Dmax %” value is listed as “A (A (>75% o))” and the DC50 was under 100 nM.
The like results for `Cc1cc(S(=O)(=O)NC2CC(N3CCN(CC4CCN(c5cccc6c5n(C)c(=O)n6C5CCC(=O)NC5=O)CC4)CC3)C2)ccc1Nc1ncc(C(F)(F)F)c(N2CCCC(C)(O)C2)n1` (centres unmarked) [I-663] were, in that order, “A (A (>75% o))” and under 100 nM.
Turning to `Cc1cc(S(=O)(=O)NC2(C)CC(N3CCN(CC4CCN(c5ccc6c(c5F)n(C)c(=O)n6C5CCC(=O)NC5=O)CC4)CC3)C2)ccc1Nc1ncc(C(F)(F)F)c(N2CCCC(C)(O)C2)n1` (centres unmarked) [I-666], the “CDK2 degradation 14 h: Average Dmax %” value is listed as “A (A (>75% o))” and the half-maximal degradation concentration (DC50) is under 100 nM.
The like results for `Cc1cc(S(=O)(=O)NC2CCC(N3CCN(CC4CN(c5cccc6c5n(C)c(=O)n6C5CCC(=O)NC5=O)C4)CC3)CC2)ccc1Nc1ncc(C(F)(F)F)c(N2CCCC(C)(O)C2)n1` (centres unmarked) [I-686] were, in that order, “A (A (>75% o))” and under 100 nM.
For `Cc1cc(S(=O)(=O)NC2CC(N3CCC4(CC3)CN(Cc3cccc5c3n(C)c(=O)n5C3CCC(=O)NC3=O)C4)C2)ccc1Nc1ncc(C(F)(F)F)c(N2CCCC(C)(O)C2)n1` (centres unmarked) [I-697], in that order: “A (A (>75% o))” and 100 to 500 nM.
As for `Cc1cc(S(=O)(=O)NC2CC(N3CCN(CC4(F)CCN(c5cccc6c5n(C)c(=O)n6C5CCC(=O)NC5=O)CC4)CC3)C2)ccc1Nc1ncc(C(F)(F)F)c(N2CCCC(C)(O)C2)n1` (centres unmarked) [I-698], the “CDK2 degradation 14 h: Average Dmax %” value was “A (A (>75% o))” and the DC50 is under 100 nM.
For `Cc1cc(S(=O)(=O)NC2CC(N3CCC(F)(CN4CCC(c5cccc6c5n(C)c(=O)n6C5CCC(=O)NC5=O)CC4)CC3)C2)ccc1Nc1ncc(C(F)(F)F)c(N2CCCC(C)(O)C2)n1` (centres unmarked) [I-699], in that order: “A (A (>75% o))” and under 100 nM.
For `Cc1cc(S(=O)(=O)NC2CC(N3CCCN(CC4CCN(c5cccc6c5n(C)c(=O)n6C5CCC(=O)NC5=O)CC4)CC3)C2)ccc1Nc1ncc(C(F)(F)F)c(N2CCCC(C)(O)C2)n1` (centres unmarked) [I-704], in that order: “A (A (>75% o))” and under 100 nM.
The like results for `Cc1cc(S(=O)(=O)NC2CC(N3CCN(CC4CCN(c5ccc(NC6CCC(=O)NC6=O)cc5C)CC4)CC3)C2)ccc1Nc1ncc(C(F)(F)F)c(N2CCCC(C)(O)C2)n1` (centres unmarked) [I-712] were, in that order, “B (B (>50% -75%))” and under 100 nM.
Take `Cc1cc(S(=O)(=O)NC2CC(N3CCN(CC4CCN(c5ccc(C6CCC(=O)NC6=O)c(Cl)c5)CC4)CC3)C2)ccc1Nc1ncc(C(F)(F)F)c(N2CCCC(C)(O)C2)n1` (centres unmarked) [I-713]: the “CDK2 degradation 14 h: Average Dmax %” value is given as “A (A (>75% o))” and the DC50 was under 100 nM.
The like results for `Cc1cc(S(=O)(=O)NC2CC(N3CCN(CC4CCN(c5ccc(C6CCC(=O)NC6=O)c(Cl)c5)CC4)CC3)C2)ccc1Nc1ncc(C(F)(F)F)c(N2CCCC(C)(O)C2)n1` (centres unmarked) [I-714] were, in that order, “A (A (>75% o))” and under 100 nM.
The like results for `Cc1cc(S(=O)(=O)NC2CC(N3CCN(CC4CCN(c5ccc(Cl)c(C6CCC(=O)NC6=O)c5)CC4)CC3)C2)ccc1Nc1ncc(C(F)(F)F)c(N2CCCC(C)(O)C2)n1` (centres unmarked) [I-715] were, in that order, “A (A (>75% o))” and under 100 nM.
The like results for `Cc1cc(S(=O)(=O)NC2CC(N3CCN(CC4CCN(c5ccc(Cl)c(NC6CCC(=O)NC6=O)c5)CC4)CC3)C2)ccc1Nc1ncc(C(F)(F)F)c(N2CCCC(C)(O)C2)n1` (centres unmarked) [I-716] were, in that order, “B (B (>50% -75%))” and over 1000 nM.
In the case of `Cc1cc(S(=O)(=O)NC2CC(N3CCN(CC4CCN(c5ccc(NC6CCC(=O)NC6=O)c(Cl)c5)CC4)CC3)C2)ccc1Nc1ncc(C(F)(F)F)c(N2CCCC(C)(O)C2)n1` (centres unmarked) [I-717], the “CDK2 degradation 14 h: Average Dmax %” value was “A (A (>75% o))” and the half-maximal degradation concentration (DC50) is under 100 nM.

The values above are taken from US20240173419A1, “CDK2 DEGRADERS AND USES THEREOF” (Kymera Therapeutics, Inc., priority 2022, published 2024).
